Data reported in patent US5416070A, “Composition for macrophage activation” (ImmunoTherapeutics, Inc., priority 1990, dated 1995).

Legend:
Assay type in all cases: cell-based
[1] = system: human peripheral blood monocytes; assay: Activation of monocytes in vitro measured by production of tumor necrosis factor (ELISA); details: for TNF (pg/ml) at given Concentration of Compound: 24 Hours
Method: (§1) Human peripheral blood monocytes were isolated by density gradient centrifugation as noted in Example 13. The cell number was adjusted to 5×10^5 cells per ml in RPM 1640 media containing 5% human AB negative serum. One ml containing 5×10^5 cells were placed in individual wells of a 24-well Plastek tissue culture plate. Various drugs in a volume of 0.5 ml were added at time zero. The cells were incubated at 37° C. in a 5% CO2 atmosphere. Aliquots (0.1 ml) of the supernatant were removed at 24 hours and frozen at -80° C. These samples were subsequently assayed for tumor necrosis factor (TNF) activity using a commercially available ELISA Assay from T-Cell Sciences (Cambridge, Mass.).
Human peripheral blood monocytes were isolated by density gradient centrifugation as described in Example 13. The cells were plated in 24-well microliter plates as described in Example 33. The compounds Were prepared in liposomes as described in Example 10, and assayed for TNF production, as described in Example 33. The results are set forth in Table 5, and show significant levels of TNF compared to controls.
as §1, with “of” for “of a”, “zero. The compounds were also formulated in liposomes as described in Example 10, and added in a volume of 0.5 ml to individual wells of a 24-well Plastek tissue culture plate.” for “zero.”, “-20°” for “-80°”, “TNF as described in Example 33 and Interleukin-1-beta (IL-1β)” for “tumor necrosis factor (TNF) activity”, “kit” for “Assay”, “Cistron (Pine Brook, N.J.).” for “T-Cell Sciences (Cambridge, Mass.).”

[2] = system: Human peripheral blood mononuclear cells; assay: Activation of monocytes in vitro measured by in vitro tumor cell cytotoxicity
Method: Human peripheral blood mononuclear cells were isolated by density gradient centrifugation on 46% Percoll. 1×10^5 of the mononuclear cells were plated onto Falcon microliter plates and allowed to adhere for two hours. The non-adherent cells were removed and fresh media added. The cells were allowed to incubate for 24 hours after which various concentrations of the drug either alone or incorporated in liposomes was added. After 24 hours, the plates were washed and 1×10^4 I^125 labelled target cells were added. Following an additional 72 hours of coincubation, the plates were washed and the residual radioactivity determined. The specific cytotoxicity was calculated from the formula: [formula] The results of cytotoxicity assay of various compounds alone or incorporated in liposomes at various concentrations is given in Table 6.

[3] = system: human peripheral blood monocytes; assay: Activation of monocytes in vitro measured by production of Interleukin-1-beta (ELISA); details: 24 Hours
Method: as §1, with “of” for “of a”, “zero. The compounds were also formulated in liposomes as described in Example 10, and added in a volume of 0.5 ml to individual wells of a 24-well Plastek tissue culture plate.” for “zero.”, “-20°” for “-80°”, “TNF as described in Example 33 and Interleukin-1-beta (IL-1β)” for “tumor necrosis factor (TNF) activity”, “kit” for “Assay”, “Cistron (Pine Brook, N.J.).” for “T-Cell Sciences (Cambridge, Mass.).”

[4] = Table 9, Experiment 2, 0.1 μg/ml
[5] = Table 9, Experiment 2, 1.0 μg/ml
[6] = Table 9, Experiment 2, 10.0 μg/ml
[7] = PC/PG liposomes (7:3), 0.1 μg/ml
[8] = PC/PG liposomes (7:3), 1.0 μg/ml
[9] = PC/PG liposomes (7:3), 10.0 μg/ml
[10] = no formulation given (drug alone), 0.1 μg/ml
[11] = no formulation given (drug alone), 1.0 μg/ml
[12] = no formulation given (drug alone), 10.0 μg/ml
[13] = Experiment 3, free drug in saline 0.1 μg/ml, 24 hours
[14] = Experiment 3, free drug in saline 1.0 μg/ml, 24 hours
[15] = Experiment 3, free drug in saline 10.0 μg/ml, 24 hours
[16] = Table 8, Experiment 1, 0.01 μg/ml
[17] = Table 8, Experiment 1, 0.1 μg/ml
[18] = Table 8, Experiment 1, 1.0 μg/ml
[19] = Table 8, Experiment 1, 10.0 μg/ml
[20] = Table 7, Experiment 1, 0.1 μg/ml
[21] = Table 7, Experiment 1, 1.0 μg/ml
[22] = Table 7, Experiment 1, 10.0 μg/ml
[23] = Table 7, Experiment 1, 0.01 μg/ml

Structure (SMILES): CCCCCCCCCCCCCCCC(=O)OCC(COC(=O)C(C)NC(=O)CCC(NC(=O)C(CO)NC(=O)C(C)OC1C(NC(C)=O)C(O)OC(CO)C1OC1OC(CO)C(O)C(O)C1NC(C)=O)C(N)=O)OC(=O)CCCCCCCCCCCCCCC [IIE, GlcNAcMurNAc-F-Ser-D-isoGln-F-Ala-DPG]
- TNF (pg/ml) at given Concentration of Compound [1, 4]: 150 pg/mL
- TNF (pg/ml) at given Concentration of Compound [1, 5]: 800 pg/mL
- TNF (pg/ml) at given Concentration of Compound [1, 6]: 1500 pg/mL

Structure (SMILES): CCCCCCCCCCCCCCCC(=O)OCC(COC(=O)C(C)NC(=O)CCC(NC(=O)C(C)NC(=O)C(C)OC1C(NC(C)=O)C(O)OC(CO)C1OC1OC(CO)C(O)C(O)C1NC(C)=O)C(N)=O)OC(=O)CCCCCCCCCCCCCCC [Compound IIC, GlcNAcMurNAc-D-Ala-D-isoGln-D-Ala-DPG]
- TNF Level ([1]; Experiment 4, free drug in saline 0.1 μg/ml, 24 hours): 40 pg/mL
- TNF Level ([1]; Experiment 4, free drug in saline 1.0 μg/ml, 24 hours): 110 pg/mL
- TNF Level ([1]; Experiment 4, free drug in saline 10.0 μg/ml, 24 hours): 450 pg/mL

Structure (SMILES): CCCCCCCCCCCCCCCC(=O)OCC(COC(=O)CCCCCCCCCCCCCCC)NC(=O)C(C)NC(=O)CCC(NC(=O)C(C)NC(=O)C(C)OC1C(NC(C)=O)C(O)OC(CO)C1OC1OC(CO)C(O)C(O)C1NC(C)=O)C(N)=O [Compound IC, GlcNAcMurNAc-D-Ala-D-isoGln-D-Ala-NHDPG]
- Cytotoxicity [2, 7]: 10.0%
- Cytotoxicity [2, 8]: 4.0%
- Cytotoxicity [2, 9]: 12.0%
- Cytotoxicity [2, 10]: 5.0%
- Cytotoxicity [2, 11]: 16.0%
- Cytotoxicity [2, 12]: 15.0%
- TNF Level [1, 13]: 280 pg/mL
- TNF Level [1, 14]: 300 pg/mL
- TNF Level [1, 15]: 250 pg/mL

Structure (SMILES): CCCCCCCCCCCCCCCC(=O)OCC(COC(=O)CCCCCCCCCCCCCCC)NC(=O)C(C)NC(=O)CCC(NC(=O)C(NC(=O)C(C)OC1C(NC(C)=O)C(O)OC(CO)C1OC1OC(CO)C(O)C(O)C1NC(C)=O)C(C)O)C(N)=O [ID, GlcNAcMurNAc-F-Thr-D-isoGln-F-Ala-NHDPG]
- IL-1-beta (pg/ml) at given Concentration of Compound [3, 16]: 10 pg/mL
- IL-1-beta (pg/ml) at given Concentration of Compound [3, 17]: 16 pg/mL
- IL-1-beta (pg/ml) at given Concentration of Compound [3, 18]: 8 pg/mL
- IL-1-beta (pg/ml) at given Concentration of Compound [3, 19]: 90 pg/mL
- TNF (pg/ml) at given Concentration of Compound [1, 20]: 0 pg/mL
- TNF (pg/ml) at given Concentration of Compound [1, 21]: 250 pg/mL
- TNF (pg/ml) at given Concentration of Compound [1, 22]: 1060 pg/mL

Structure (SMILES): CCCCCCCCCCCCCCCC(=O)OCC(COC(=O)CCCCCCCCCCCCCCC)NC(=O)C(C)NC(=O)CCC(NC(=O)C(C)NC(=O)C(C)OC1C(NC(C)=O)C(O)OC(CO)C1OC1OC(CO)C(O)C(O)C1NC(C)=O)C(N)=O [Compound IB, GlcNAcMurNAc-L-Ala-D-isoGln-D-Ala-NHDPG]
- TNF Level [1, 13]: 180 pg/mL
- TNF Level [1, 14]: 350 pg/mL
- TNF Level [1, 15]: 1980 pg/mL

Structure (SMILES): CCCCCCCCCCCCCCCC(=O)OCC(COC(=O)C(C)NC(=O)CCC(NC(=O)C(NC(=O)C(C)OC1C(NC(C)=O)C(O)OC(CO)C1OC1OC(CO)C(O)C(O)C1NC(C)=O)C(C)O)C(N)=O)OC(=O)CCCCCCCCCCCCCCC [IID, GlcNAcMurNAc-F-Thr-D-isoGln-F-Ala-DPG]
- IL-1-beta (pg/ml) at given Concentration of Compound [3, 16]: 70 pg/mL
- IL-1-beta (pg/ml) at given Concentration of Compound [3, 17]: 14 pg/mL
- IL-1-beta (pg/ml) at given Concentration of Compound [3, 18]: 170 pg/mL
- IL-1-beta (pg/ml) at given Concentration of Compound [3, 19]: 690 pg/mL
- TNF (pg/ml) at given Concentration of Compound [1, 23]: 70 pg/mL
- TNF (pg/ml) at given Concentration of Compound [1, 20]: 320 pg/mL
- TNF (pg/ml) at given Concentration of Compound [1, 21]: 1080 pg/mL
- TNF (pg/ml) at given Concentration of Compound [1, 22]: 2150 pg/mL

Structure (SMILES): CCCCCCCCCCCCCCCC(=O)OCC(COC(=O)C(C)NC(=O)CCC(NC(=O)C(NC(=O)C(C)OC1C(NC(C)=O)C(O)OC(CO)C1OC1OC(CO)C(O)C(O)C1NC(C)=O)C(C)C)C(N)=O)OC(=O)CCCCCCCCCCCCCCC [IIF, GlcNAcMurNAc-F-Val-D-isoGln-F-Ala-DpG]
- IL-1-beta (pg/ml) at given Concentration of Compound [3, 16]: 220 pg/mL
- IL-1-beta (pg/ml) at given Concentration of Compound [3, 17]: 212 pg/mL
- IL-1-beta (pg/ml) at given Concentration of Compound [3, 18]: 260 pg/mL
- IL-1-beta (pg/ml) at given Concentration of Compound [3, 19]: 260 pg/mL
- TNF (pg/ml) at given Concentration of Compound [1, 23]: 510 pg/mL
- TNF (pg/ml) at given Concentration of Compound [1, 20]: 440 pg/mL
- TNF (pg/ml) at given Concentration of Compound [1, 21]: 480 pg/mL
- TNF (pg/ml) at given Concentration of Compound [1, 22]: 400 pg/mL

Structure (SMILES): CCCCCCCCCCCCCCCC(=O)OCC(COC(=O)C(C)NC(=O)CCC(NC(=O)C(C)NC(=O)C(C)OC1C(NC(C)=O)C(O)OC(CO)C1OC1OC(CO)C(O)C(O)C1NC(C)=O)C(N)=O)OC(=O)CCCCCCCCCCCCCCC [Compound IIB, 4-O-[2-acetamido-2-deoxy-β-D-glucopyranosyl]-2-acetamido-2-deoxy-3-O-[D-2-propanoyl-L-alanyl-D-isoglutaminyl-D-alanyl-1,2-dipalmitoyl-sn-glycerol]-D-glucopyranose]
- TNF Level [1, 13]: 250 pg/mL
- TNF Level [1, 14]: 500 pg/mL
- TNF Level [1, 15]: 1600 pg/mL

Structure (SMILES): CCCCCCCCCCCCCCCC(=O)OCC(COC(=O)C(NC(=O)CCC(NC(=O)C(C)NC(=O)C(C)OC1C(NC(C)=O)C(O)OC(CO)C1OC1OC(CO)C(O)C(O)C1NC(C)=O)C(N)=O)C(C)C)OC(=O)CCCCCCCCCCCCCCC [IIG, GlcNAcMurNAc-F-Ala-D-isoGln-F-Val-DpG]
- TNF (pg/ml) at given Concentration of Compound [1, 4]: 1150 pg/mL
- TNF (pg/ml) at given Concentration of Compound [1, 5]: 1500 pg/mL
- TNF (pg/ml) at given Concentration of Compound [1, 6]: 1400 pg/mL

Structure (SMILES): CCCCCCCCCCCCCCCC(=O)OCC(COC(=O)CCCCCCCCCCCCCCC)NC(=O)C(C)NC(=O)CCC(NC(=O)C(C)NC(=O)C(C)OC1C(NC(C)=O)C(O)OC(CO)C1OC1OC(CO)C(O)C(O)C1NC(C)=O)C(N)=O [Compound IA, 4-O-[2-acetamido-2-deoxy-β-D-glucopyranosyl]-2-acetamido-2-deoxy-3-O-[D-2-propanoyl-L-alanyl-D-isoglutaminyl-L-alanyl-2-(1,3-dipalmitoyloxy)propylamide]-D-glucopyranose]
- Cytotoxicity [2, 7]: 7.0%
- Cytotoxicity [2, 8]: 7.0%
- Cytotoxicity [2, 9]: 6.0%
- Cytotoxicity ([2]; PC/PS liposomes (7:3), 0.1 μg/ml): 8.0%
- Cytotoxicity ([2]; PC/PS liposomes (7:3), 1.0 μg/ml): 5.0%
- Cytotoxicity ([2]; PC/PS liposomes (7:3), 10.0 μg/ml): 19.0%
- Cytotoxicity [2, 10]: 1.0%
- Cytotoxicity [2, 11]: 4.0%
- Cytotoxicity [2, 12]: 3.0%
- TNF Level [1, 13]: 280 pg/mL
- TNF Level [1, 14]: 1000 pg/mL
- TNF Level [1, 15]: 1680 pg/mL
- TNF Level ([1]; Table 5, compound incorporated in liposomes, 0.1 μg/ml): 430 pg/mL
- TNF Level ([1]; Table 5, compound incorporated in liposomes, 1.0 μg/ml): 800 pg/mL
- TNF Level ([1]; Table 5, compound incorporated in liposomes, 10.0 μg/ml): 750 pg/mL
